Measurements published in US12226424B2, “Target protein degradation compounds, their anti-tumor use, their intermediates and use of intermediates” (ShanghaiTech University, priority 2018, dated 2025).

System: K562 cells (BCR-ABL positive)
Assay: Half inhibitory concentration (IC50) on tumor cells, CCK-8, K562
Settings: Homo sapiens, K562, 48 h, read-out: IC50 (nM)/K562 cell line
Method: Determination of Half Inhibitory Concentration (IC50) of PROTAD Compounds on Tumor Cells
K562 cells were seeded in 100 μL of RPMI1640 complete medium at a density of 20,000 cells/well. 100 μL of the inoculated cells were treated with 100 μL diluted PROTAD compound of the present disclosure to be tested at 9 successively decreasing concentrations (starting at the highest concentration of 10 μM; 3-fold serial dilutions). After the cells were treated with the tested drugs for 48 hours, the cell viability determination was performed in accordance with CCK-8 reagent operating instructions. The negative control was DMSO, and positive control was a commercial inhibitor. After CCK-8 treatment for 2 h, the value of O.D.450 was measured using a microplate reader.

| SMILES | IC50 [nM] |
| --- | --- |
| COc1cc(Nc2c(C#N)cnc3cc(OCCCN4CCN(C(=O)CCCCCSc5cccc6c5C(=O)N(C5CCC(=O)NC5=O)C6=O)CC4)c(OC)cc23)c(Cl)cc1Cl (stereo not drawn) [SIAIS151172, 4-((2,4-dichloro-5-methoxyphenyl)amino)-7-(3-(4-(6-((2-(2,6-dioxopiperidin-3-yl)-1,3-dioxoisoindolin-4-yl)thio)hexanoyl)piperazin-1-yl)propoxy)-6-methoxyquinoline-3-carbonitrile] | 1370 |
| Cc1ccc(C(=O)Nc2ccc(CN3CCN(C(=O)CCSc4cccc5c4C(=O)N(C4CCC(=O)NC4=O)C5=O)CC3)c(C(F)(F)F)c2)cc1C#Cc1cnc2cccnn12 (stereo not drawn) [SIAIS220046, N-(4-((4-(3-((2-(2,6-dioxopiperidin-3-yl)-1,3-dioxoisoindolin-4-yl)thio)propanoyl)piperazin-1-yl)methyl)-3-(trifluoromethyl)phenyl)-3-(imidazo[1,2-b]pyridazin-3-ylethynyl)-4-methylbenzamide] | 2.97 |
| COc1cc(Nc2c(C#N)cnc3cc(OCCCN4CCN(C(=O)CCCCSc5cccc6c5C(=O)N(C5CCC(=O)NC5=O)C6=O)CC4)c(OC)cc23)c(Cl)cc1Cl (stereo not drawn) [SIAIS151171, 4-((2,4-dichloro-5-methoxyphenyl)amino)-7-(3-(4-(5-((2-(2,6-dioxopiperidin-3-yl)-1,3-dioxoisoindolin-4-yl)thio)pentanoyl)piperazin-1-yl)propoxy)-6-methoxyquinoline-3-carbonitrile] | 1540 |
| COc1cc(Nc2c(C#N)cnc3cc(OCCCN4CCN(C(=O)CCCCCCSc5cccc6c5C(=O)N(C5CCC(=O)NC5=O)C6=O)CC4)c(OC)cc23)c(Cl)cc1Cl (stereo not drawn) [SIAIS151173, 4-((2,4-dichloro-5-methoxyphenyl)amino)-7-(3-(4-(7-((2-(2,6-dioxopiperidin-3-yl)-1,3-dioxoisoindolin-4-yl)thio)heptanoyl)piperazin-1-yl)propoxy)-6-methoxyquinoline-3-carbonitrile] | 8260 |
| COc1cc(Nc2c(C#N)cnc3cc(OCCCN4CCN(C(=O)CCCSc5cccc6c5C(=O)N(C5CCC(=O)NC5=O)C6=O)CC4)c(OC)cc23)c(Cl)cc1Cl (stereo not drawn) [SIAIS151170, 4-((2,4-dichloro-5-methoxyphenyl)amino)-7-(3-(4-(4-((2-(2,6-dioxopiperidin-3-yl)-1,3-dioxoisoindolin-4-yl)thio)butanoyl)piperazin-1-yl)propoxy)-6-methoxyquinoline-3-carbonitrile] | 400 |

The next lines start with the values.

| IC50 [nM] | SMILES |
| --- | --- |
| 1.78 | Cc1ccc(C(=O)Nc2ccc(CN3CCN(C(=O)CSc4cccc5c4CN(C4CCC(=O)NC4=O)C5=O)CC3)c(C(F)(F)F)c2)cc1C#Cc1cnc2cccnn12 (stereo not drawn) [SIAIS220051, N-(4-((4-(2-((2-(2,6-dioxopiperidin-3-yl)-1-oxoisoindolin-4-yl)thio)acetyl)piperazin-1-yl)methyl)-3-(trifluoromethyl)phenyl)-3-(imidazo[1,2-b]pyridazin-3-ylethynyl)-4-methylbenzamide] |
| 5.58 | Cc1ccc(C(=O)Nc2ccc(CN3CCN(C(=O)CCCCCSc4cccc5c4CN(C4CCC(=O)NC4=O)C5=O)CC3)c(C(F)(F)F)c2)cc1C#Cc1cnc2cccnn12 (stereo not drawn) [SIAIS220055, N-(4-((4-(6-((2-(2,6-dioxopiperidin-3-yl)-1-oxoisoindolin-4-yl)thio)hexanoyl)piperazin-1-yl)methyl)-3-(trifluoromethyl)phenyl)-3-(imidazo[1,2-b]pyridazin-3-ylethynyl)-4-methylbenzamide] |
| 4.06 | Cc1ccc(C(=O)Nc2ccc(CN3CCN(C(=O)CCCCSc4cccc5c4C(=O)N(C4CCC(=O)NC4=O)C5=O)CC3)c(C(F)(F)F)c2)cc1C#Cc1cnc2cccnn12 (stereo not drawn) [SIAIS220048, N-(4-((4-(5-((2-(2,6-dioxopiperidin-3-yl)-1,3-dioxoisoindolin-4-yl)thio)pentanoyl)piperazin-1-yl)methyl)-3-(trifluoromethyl)phenyl)-3-(imidazo[1,2-b]pyridazin-3-ylethynyl)-4-methylbenzamide] |
| 5.75 | Cc1ccc(C(=O)Nc2ccc(CN3CCN(C(=O)CCCCCSc4cccc5c4C(=O)N(C4CCC(=O)NC4=O)C5=O)CC3)c(C(F)(F)F)c2)cc1C#Cc1cnc2cccnn12 (stereo not drawn) [SIAIS220049, N-(4-((4-(6-((2-(2,6-dioxopiperidin-3-yl)-1,3-dioxoisoindolin-4-yl)thio)hexanoyl)piperazin-1-yl)methyl)-3-(trifluoromethyl)phenyl)-3-(imidazo[1,2-b]pyridazin-3-ylethynyl)-4-methylbenzamide] |
| 2.68 | Cc1ccc(C(=O)Nc2ccc(CN3CCN(C(=O)CCCCSc4cccc5c4CN(C4CCC(=O)NC4=O)C5=O)CC3)c(C(F)(F)F)c2)cc1C#Cc1cnc2cccnn12 (stereo not drawn) [SIAIS220054, N-(4-((4-(5-((2-(2,6-dioxopiperidin-3-yl)-1-oxoisoindolin-4-yl)thio)pentanoyl)piperazin-1-yl)methyl)-3-(trifluoromethyl)phenyl)-3-(imidazo[1,2-b]pyridazin-3-ylethynyl)-4-methylbenzamide] |
| 4.06 | Cc1ccc(C(=O)Nc2ccc(CN3CCN(C(=O)CCCSc4cccc5c4CN(C4CCC(=O)NC4=O)C5=O)CC3)c(C(F)(F)F)c2)cc1C#Cc1cnc2cccnn12 (stereo not drawn) [SIAIS220053, N-(4-((4-(4-((2-(2,6-dioxopiperidin-3-yl)-1-oxoisoindolin-4-yl)thio)butanoyl)piperazin-1-yl)methyl)-3-(trifluoromethyl)phenyl)-3-(imidazo[1,2-b]pyridazin-3-ylethynyl)-4-methylbenzamide] |
| 12.8 | Cc1ccc(C(=O)Nc2ccc(CN3CCN(C(=O)CCCCCCSc4cccc5c4C(=O)N(C4CCC(=O)NC4=O)C5=O)CC3)c(C(F)(F)F)c2)cc1C#Cc1cnc2cccnn12 (stereo not drawn) [SIAIS220050, N-(4-((4-(7-((2-(2,6-dioxopiperidin-3-yl)-1,3-dioxoisoindolin-4-yl)thio)heptanoyl)piperazin-1-yl)methyl)-3-(trifluoromethyl)phenyl)-3-(imidazo[1,2-b]pyridazin-3-ylethynyl)-4-methylbenzamide] |
| 5.98 | Cc1ccc(C(=O)Nc2ccc(CN3CCN(C(=O)CCCCCCSc4cccc5c4CN(C4CCC(=O)NC4=O)C5=O)CC3)c(C(F)(F)F)c2)cc1C#Cc1cnc2cccnn12 (stereo not drawn) [SIAIS220056, N-(4-((4-(7-((2-(2,6-dioxopiperidin-3-yl)-1-oxoisoindolin-4-yl)thio)heptanoyl)piperazin-1-yl)methyl)-3-(trifluoromethyl)phenyl)-3-(imidazo[1,2-b]pyridazin-3-ylethynyl)-4-methylbenzamide] |

System: CDK4/6 protein
Assay: Western-blot determination of CDK4/6 protein degradation (DC50) in T-47D cells
Format: cell-based, human
Settings: 24 h drug treatment, read-out: DC50(nM)/T-47D cell line

| DC50 [nM] | SMILES |
| --- | --- |
| 100 to 500 | CC(=O)c1c(C)c2cnc(Nc3ccc(N4CCN(C(=O)CS(=O)(=O)c5cccc6c5C(=O)N(C5CCC(=O)NC5=O)C6=O)CC4)cn3)nc2n(C2CCCC2)c1=O (stereo not drawn) [SIAIS151056, 4-((2-(4-(6-((6-acetyl-8-cyclopentyl-5-methyl-7-oxo-7,8-dihydropyrido[2,3-d]pyrimidin-2-yl)amino)pyridin-3-yl)piperazin-1-yl)-2-oxoethyl)sulfonyl)-2-(2,6-dioxopiperidin-3-yl)isoindoline-1,3-dione] |
| 10 to 50 | CC(=O)c1c(C)c2cnc(Nc3ccc(N4CCN(C(=O)COCCOCCSc5cccc6c5C(=O)N(C5CCC(=O)NC5=O)C6=O)CC4)cn3)nc2n(C2CCCC2)c1=O (stereo not drawn) [SIAIS219059, 4-((2-(2-(2-(4-(6-((6-acetyl-8-cyclopentyl-5-methyl-7-oxo-7,8-dihydropyrido[2,3-d]pyrimidin-2-yl)amino)pyridin-3-yl)piperazin-1-yl)-2-oxoethoxy)ethoxy)ethyl)thio)-2-(2,6-dioxopiperidin-3-yl)isoindoline-1,3-dione] |
